Data: patent publication US6635671B1, “Compounds which affect mRNA stability and uses therefor” (Novation Pharmaceuticals Inc., priority 1998, dated 2003)
Like-named read-outs stand apart in the source and are kept apart here.

Key:
[1] = test system: THP-1 clone No. 53 (pGL2_Neo / pGL2-Control); test: Luciferase reporter gene assay, control clone No. 53 (no instability sequence); format: cell-based, human; design: Luciferase reporter gene assay, luciferase activity: unit not given here; settings: for Luciferase reporter gene assay, luciferase activity: clone 53
From the text: (§1) In order to obtain a vector for stable integration into THP-1 cells, a XhoI-SalI fragment of the neo resistant gene (expressing aminoglycoside 3′ phosphotransferase) derived from pMCIneo (Stratagene) is subcloned into the SalI site of pGL2Control (Promega). This resulting plasmid was called pGL2_Neo. A 30 bp fragment (containing three tandem AUUUA motifs, based on the IL-Iβ3′UTR sequence) obtained by annealing two complementary synthetic oligonucleotides (see FIG. 1) is subcloned into pGL2 Neo using the PflM1 restriction site.
(§2) The resulting vectors pGL2_Neo30 and pGL2_Neo are transfected into THP-1 cells by electroporation. 10^7 cells/ml in 1.3 mM KH2PO4, 7.36 m.M Na2HPO4, 2.44 mM KCl, 124 mm NaCl, 5 mM glucose, 9.6 μM MgCl2 and 16 μM CaCI2 pH 7.2 are transfected with 20 μg of DNA in a Bio-Rad Gene Pulser (250V, 690 μF and indefinite resistance) using a 0.4 cm cuvette. Cells are subsequently cultured in RPMI medium containing 10%FBS, 2mM L-Gln (L-glutamine), 50 μM 2mercaptoethanol and 600 μg/ml of G418 (geneticin). After transfection of pGL2_Neo30 and pGL2_Neo into THP-1 cells, stable cell lines are obtained by selection for G418 resistance and assayed for luciferase activity. One cell line of each transfection is chosen for further analysis; the pGL2_Neo30 cell line is referred to as clone No. 63 and the pGL2_Neo cell line as clone No. 53. No endogenous luciferase activity could be detected in normal THP-1 cells.
(§3) The transfected human monocytic leukemia cell lines, clones No. 53 and 63 are grown in RPMI medium supplemented with 110 U/ml penicillin, 100 μg/ml streptomycin, 2 mM L-Gln and 2 g/l NaHCO3. Heat-treated FBS (5%) is added before use. The cells are grown to a density of 5×10^5/ml and induced to differentiate with 100 U/ml (final concentration) γIFN. Three hours later, 10 μl of LPS (5 μg/ml final concentration) is added. This time point is designated time 0. Compounds are added at various times after LPS addition as indicated.
(§4) In order to adapt the system to the use of 96 well plates, cells are grown in Packard flat bottom white polystyrene microplates (Cat No.6005180) in RPMI medium lacking phenol red (AMIMED). Cells are plated at 5×10^4/well. After treatment of the cells, luciferase is measured using the Packard Luc Lite system (Cat. No.601691 1) according to the manufacturer's instructions in a final volume of 205 μl. Briefly, to a cell suspension of 5×10^5 cells/ml, γIFN (1000 U/ml Boehringer Mannheim No. 1050494) to a final concentration of 100 U/ml and 0.25% (v/v) Luc Lite Enhancer is added. After a 3 hour incubation LPS (50 μg/ml SIGMA L-8274) is added to give 5 μg/ml final concentration. The cells are then plated at 5×10^4/100 l/well into flat bottom white polystyrene microplates (Packard, Cat No. 6005180) and incubated for 16 hours. 5 μl of compound solution or control vehicle is then added and the cells are further incubated as indicated. 100 μl of luciferase substrate solution is added and the plates are covered with TopSeal-A press-on adhesive sealing film (Packard Cat.No. 6005185) before measuring luminescence with a Packard Top Count Scintillation Counter at 22° C. The luciferase signal is stable for at least 90 min.
(§5) The THP-1 cell lines, clone No. 63 (containing PGL2_Neo30) and clone No. 53 (containing pGL2-Control) are grown, differentiated and stimulated with γIFN and LPS identical to normal THP-1 cells. Radicicol analog A is added 16 hours after the addition of LPS and cell extracts are then taken 8 hours later or as indicated. Luciferase activity is inhibited by 1 μM radicicol analog A on average by 50%±17%, in some cases inhibition was as great as 93%, whereas up to 5×10^−6M of radical analog A has no effects on the control clone No. 53, FIG. 3 (solid bars indicate clone No. 53, open bars clone No. 63).
(§6) A number of radicicol analogues are tested for their activity in the reporter assay substantially as described in the previous Examples.

[2] = test system: THP-1 clone No. 63 (pGL2_Neo30; luciferase mRNA with three tandem AUUUA motifs of the IL-1β 3′UTR); test: Luciferase reporter gene assay, clone No. 63 (pGL2_Neo30, with mRNA instability sequence); format: cell-based, human; design: Luciferase reporter gene assay, luciferase activity: unit not given here; settings: for Luciferase reporter gene assay, luciferase activity: clone 63; for inhibition at 1 µM: Homo sapiens, THP-1, clone No. 63
From the text: as §1, §2, §3, §4, §5, §6

IL-1β mRNA = settings: THP-1 cells activated by IFN-γ and LPS; cited from earlier work
TNF-α mRNA = settings: THP-1 cells activated by IFN-γ and LPS; cited from earlier work
IL-6 mRNA = settings: THP-1 cells activated by IFN-γ and LPS; cited from earlier work
IL-1β = settings: THP-1 cells activated by IFN-γ and LPS; cited from earlier work

Row | SMILES | Luciferase reporter gene assay, luciferase activity ([1]; 0.5 μM) | Luciferase reporter gene assay, luciferase activity ([1]; 1 μM) | Luciferase reporter gene assay, luciferase activity ([1]; 5 μM) | Luciferase reporter gene assay, luciferase activity ([2]; 0.5 μM) | Luciferase reporter gene assay, luciferase activity ([2]; 1 μM) | Luciferase reporter gene assay, luciferase activity ([2]; 5 μM) | Time of degradation of IL-1β mRNA to undetectable levels (IL-1β mRNA) [h] | Effect on luciferase activity of control clone ([1]; clone No. 53, up to 5×10^−6M) | Time of degradation of TNF-α mRNA to undetectable levels (TNF-α mRNA) [h] | inhibition at 1 µM ([2]; 1 μM, added 16 h after LPS, extracts 8 h later, read-out: Inhibition of luciferase activity, on average) [%] | inhibition at 1 µM ([2]; 1 μM, read-out: Inhibition of luciferase activity, greatest inhibition in some cases) [%] | Time of degradation of IL-6 mRNA to undetectable levels (IL-6 mRNA) [h] | Secretion of IL-1β (IL-1β)
1 | C[C@@H]1C[C@H]2O[C@@H]2CCCCC(=O)Cc2c(Cl)c(O)cc(O)c2C(=O)O1 | 99 | 77 | 69 | 88 | 64 | 57 | – | – | – | – | – | – | –
2 | COc1cc(O)c2c(c1)/C=C/CC(O)C(O)C(=O)/C=C\CC(C)OC2=O (stereo not shown) | 114 | 105 | 107 | 97 | 88 | 87 | – | – | – | – | – | – | –
3 | COc1cc(O)c2c(c1OC)/C=C/C[C@H](O)[C@H](O)C(=O)/C=C\C[C@H](C)OC2=O [drawing 13] | 136 | 140 | 108 | 69 | 32 | 9 | – | – | – | – | – | – | –
4 | COc1cc(O)c2c(c1)/C=C/CC(O)C(O)C(=O)CCCC(C)OC2=O (stereo not shown) | 103 | 122 | 104 | 107 | 93 | 70 | – | – | – | – | – | – | –
5 | COc1cc(O)c2c(c1OC)/C=C/C[C@H](O)[C@H](O)C(=O)/C=C\C[C@H](C)OC2=O [radicicol analog A] | – | – | – | – | – | – | 5 to 8 | no effects | 5 to 8 | 50 | 93 | 5 to 8 | inhibited the secretion of IL-1β
6 | COc1cc(O)c2c(c1OC)/C=C/C[C@H](O)[C@H](O)C(=O)/C=C/C[C@H](C)OC2=O | 97 | 91 | 55 | 96 | 94 | 7 | – | – | – | – | – | – | –
7 | C[C@@H]1C[C@H]2O[C@@H]2CCCCC(=O)Cc2cc(O)cc(O)c2C(=O)O1 | 83 | 81 | 70 | 80 | 66 | 61 | – | – | – | – | – | – | –
8 | C[C@@H]1C[C@H]2O[C@@H]2/C=C\C=C\C(=O)Cc2c(Cl)c(O)cc(O)c2C(=O)O1 | 68 | 51 | 40 | 42 | 18 | 3 | – | – | – | – | – | – | –
